What was measured:
[1] = Thermal gravimetric analysis of oxycodone base and oxycodone HCl; assay type: physicochemical
Method: Initially, thermal gravimetric analysis was used to measure the weight loss of oxycodone base and oxycodone HC1 in order to determine the correct temperature to conduct the volatilization study. Oxycodone base was subjected to increasing temperature conditions (30 to 350° C.) at a ramping rate of 20° C./min. Vaporization occurred above 200° C. and was complete at 310° C. Vaporization of oxycodone HCl (28 to 400° C.) was analogous to that of the free base up to approximately 300° C. after which significant decomposition of the salt form occurred. Based on these observations, a temperature of 280° C. was selected for this study. This temperature is above the melting point of oxycodone (to ensure adequate drug vaporization) and below 300° C. (to limit decomposition of the salt form). A maximum exposure time of 10 minutes was selected based on pre-test observations that little additional oxycodone was recovered beyond that time point.

[2] = Solubility of the active agent in Triacetin and in water (stated); assay type: physicochemical
[3] = Preliminary in vitro volatilization test on hot plate (Example 4a); assay type: physicochemical; settings: 40 mg sample; for Oxycodone Collected (in mg), total: total of 4 time points
Excerpt: In order to further assess the abuse-resistance performance of the dosage forms of the present invention, the following in vitro volatilization test was developed. In particular, intentional abuse of controlled release pharmaceutical dosage forms may alternatively be carried out by volatilization (smoking, or free-basing) techniques that can liberate active agent (in immediately active form) from commercially available controlled release carrier systems. Accordingly, a preliminary in vitro volatilization test was developed in order to assess: (1) whether oxycodone free base was more volatile than the salt (HCl) form; and (2) whether the abuse-resistant dosage forms produced according to the instant invention can prevent inhalation abuse through volatilization.
Each petri dish was fitted with a watch glass as a cover, and the covered test dishes were placed on a hot plate (setting 10). After 30 seconds each watch glass was replaced with a fresh watch glass, and this step was repeated three times (to obtain 4 time points). Any residue deposited on the bottom side of the test watch glasses was carefully transferred with an Alpha Swab (TX 761) into 40/60 ethanol/0.005M HCl solution, and the concentration of oxycodone solution was determined by HPLC. The observations taken during the test were as follows. […] It was noted that vaporized drug (and solvents where present) escaped during each change of the watch glass, which may be at least partially responsible for the low recovery noted in the HPLC results below. […] The HPLC results obtained in this Example 4a are provided below in Table 30.

[4] = intravenous bolus dosing, human, open literature data; cited from earlier work

SMILES | solubility in Triacetin [2] | solubility in water [2] | Oxycodone Collected ([3]; time point 0.5 minutes) [mg] | Oxycodone Collected ([3]; time point 1.0 minutes) [mg] | Oxycodone Collected ([3]; time point 1.5 minutes) [mg] | Oxycodone Collected ([3]; time point 2.0 minutes) [mg] | Oxycodone Collected (in mg), total [3] [mg] | other results
COc1ccc2c3c1O[C@H]1C(=O)CC[C@@]4(O)[C@@H](C2)N(C)CC[C@]314 [oxycodone free base, oxycodone] | high solubility in Triacetin | low water solubility |  |  |  |  |  | temperature above which vaporization occurred ([1]; ramping rate 20° C./min): above 200 °C; temperature at which vaporization was complete ([1]; ramping rate 20° C./min): 310 °C
COc1ccc2c3c1O[C@H]1C(=O)CC[C@@]4(O)[C@@H](C2)N(C)CC[C@]314.Cl [oxycodone API (HCl salt form)] |  |  | 1.7202 | 0.4086 | 0.1236 | 0.0270 | 2.2794 | 
COc1ccc2c3c1O[C@H]1C(=O)CC[C@@]4(O)[C@@H](C2)N(C)CC[C@]314 [oxycodone API (free base form)] |  |  | 1.4730 | 7.2666 | 0.7356 | 0.7050 | 10.1802 | 
C[C@H](N)Cc1ccccc1 [d-amphetamine] |  |  |  |  |  |  |  | unit impulse response parameter A [4]: 98.3±6.01; unit impulse response parameter B [4]: 28.2±0.56; unit impulse response parameter α [4]: 9.65±0.64; unit impulse response parameter β [4]: 6.31×10^−2±3.78×10^−3
COc1ccc2c3c1O[C@H]1C(=O)CC[C@@]4(O)[C@@H](C2)N(C)CC[C@]314.Cl [oxycodone in salt form, oxycodone HCl] | low solubility in Triacetin | high solubility in water |  |  |  |  |  | temperature after which significant decomposition occurred ([1]; 28 to 400° C.): approximately 300 °C

From patent publication US20170319501A1, “Oral Pharmaceutical Dosage Forms” (DURECT CORPORATION, priority 2007, published 2017)
